Assays:
[1] = target: T1, SULT1A1 human (Homo sapiens, UniProt P50225, V223M); assay: pHCA and zosteric acid in culture media of E. coli expressing an aryl sulfotransferase in combination with cysDNC and cysQ; format: cell-based; details: Enzymes: SULT1A1 Homo sapiens, grown as in Example 1 (0.1 mM pHCA)
T1 construct: expressed in transfected cells; host or cells: E. coli BL21(DE3)pLysS
Experimental: The strains were grown in M9 minimal media containing glucose as a carbon source, and 0.1 mM IPTG for induction of gene expression as well as 0.1 mM p-coumaric acid (pHCA). After four days of growth, samples were withdrawn by filtration and analyzed by HPLC.
(§1) The concentration of p-courmaric acid (pHCA) and zosteric acid in the supernatant was quantified by high performance liquid chromatography (HPLC) and compared to chemical standards. HPLC was done on a Thermo setup using a HS-F5 column and mobile phases: 5 mM ammonium formate pH 4.0 (A) and acetonitrile (B) at 1.5 mL min-1, using a gradient elution starting at 5% B. From 0.5 min after injection to 7 min, the fraction of B increased linearly from 5% to 60%, and between 9.5 min and 9.6 the fraction of B decreased back to 5%, and remaining there until 12 min. pHCA and zosteric acid were quantified by measuring absorbance at 277 nm.
The addition of sulfated groups to targets is dependent on supply of the donor molecule 3′-Phosphoadenosine 5′-phosphosulfate (PAPS). We examined if we could increase the production of zosteric acid by overexpressing enzymes providing PAPS and an enzyme that removes the product 3′-Phosphoadenosine 5′-phosphate (PAP).
In E. coli, the genes cysD and cysN encode the two subunits of ATP sulfurylase (EC:2.7.7.4), cysC encodes APS kinase (EC:2.7.1.25), and cysQ encode a PAP phosphatase.
The plasmid pRSFDuet-1 (Life Technologies) was digested by the restriction endonucleases NdeI and BgIII. The gene cluster was inserted into the digested plasmid using the Gibson reaction (New England Biolabs). […] For the combined expression of cysDNC and cysQ in an artificial operon, cysDNCQ, the two parts were amplified by PCR from E. coli MG1655 chromosomal DNA using the primers shown in Table 3. Again the parts were inserted into the digested plasmid. […] The plasmid expressing SULT1A1 Homo sapiens (SEQ ID NO: 2) from example 1 was co-transformed into E. coli BL21(DE3)pLysS cells (Life Technologies) with either the plasmid expressing cysDNC or cysDNCQ.
Cells were grown as in Example 1 and the supernatants were analyzed for product formation as in example 1. The strain expressing SULT1A1 in combination with cysDNCQ was also grown without the addition of IPTIG for induction.

[2] = target: T2, RsTAL (Cereibacter sphaeroides, UniProt Q3IWB0); assay: Titers of pHCA and zosteric acid, E. coli co-expressing tyrosine ammonia-lyase and SULT1A1 rat; format: cell-based, Rhodobacter sphaeroides; details: E. coli BL21(DE3) with SULT1A1 rat and RsTAL; M9, 0.2% glucose, 2 mM tyrosine, 1 mM IPTG; overnight 37° C.; supernatant
T2 construct: were optimized for E. coli and synthesized by GeneArt, amplified by PCR; expressed in transfected cells; host or cells: E. coli BL21(DE3), plasmid pCBJ215
T2 sequence (Q3IWB0 whole entry Q21E/A24S/I74V/S113A/S143M/R238G/D285G/G287S): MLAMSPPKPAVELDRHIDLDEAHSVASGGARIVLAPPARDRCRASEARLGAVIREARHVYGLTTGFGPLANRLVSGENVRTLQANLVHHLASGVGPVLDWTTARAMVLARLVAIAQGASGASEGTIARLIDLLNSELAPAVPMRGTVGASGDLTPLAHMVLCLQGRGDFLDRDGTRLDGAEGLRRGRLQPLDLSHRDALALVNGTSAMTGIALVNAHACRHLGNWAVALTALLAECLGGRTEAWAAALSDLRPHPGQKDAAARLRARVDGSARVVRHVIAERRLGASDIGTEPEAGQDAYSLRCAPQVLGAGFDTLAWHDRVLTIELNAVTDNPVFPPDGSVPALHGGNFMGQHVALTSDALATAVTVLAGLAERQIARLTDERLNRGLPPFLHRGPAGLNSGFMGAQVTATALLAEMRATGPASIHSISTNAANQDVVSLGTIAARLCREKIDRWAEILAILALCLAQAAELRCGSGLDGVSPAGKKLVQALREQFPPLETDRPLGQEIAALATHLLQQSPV
Experimental: as §1
The genes encoding the tyrosine ammonia-lyases RcTAL (from Rhodobacter capsulatus; SEQ ID NO: 50), RsTAL (from Rhodobacter sphaeroides; SEQ ID NO: 43) and FjTAL (from Flavobacterium johnsoniae; SEQ ID NO: 40) were cloned into expression vectors as follows. […]
Strains harboring recombinant plasmids were pre-cultured in 2×YT liquid medium with 100 μg mL^−1 ampicillin and 50 μg mL^−1 spectinomycin and incubated at 37° C. and 250 rpm overnight. […] The supernatants were then collected by centrifugation twice and applied to HPLC analysis as described in example 1, and the titers of p-coumaric acid (pHCA) and zosteric acid (ZA) were quantified using chemical standards and are presented in the table below.

[3] = target: T3, SULT1A1 rat (Rattus norvegicus, UniProt P17988); assay: Titers of zosteric acid in Saccharomyces cerevisiae expressing a sulfotransferase; format: cell-based; details: S. cerevisiae CEN.PK102-5B, modified Delft medium, 10 mM p-coumaric acid, overnight 30° C.
T3 construct: expressed in transfected cells; host or cells: Saccharomyces cerevisiae CEN.PK102-5B (plasmids pCBJ283, pCBJ284)
T3 sequence (P17988 whole entry): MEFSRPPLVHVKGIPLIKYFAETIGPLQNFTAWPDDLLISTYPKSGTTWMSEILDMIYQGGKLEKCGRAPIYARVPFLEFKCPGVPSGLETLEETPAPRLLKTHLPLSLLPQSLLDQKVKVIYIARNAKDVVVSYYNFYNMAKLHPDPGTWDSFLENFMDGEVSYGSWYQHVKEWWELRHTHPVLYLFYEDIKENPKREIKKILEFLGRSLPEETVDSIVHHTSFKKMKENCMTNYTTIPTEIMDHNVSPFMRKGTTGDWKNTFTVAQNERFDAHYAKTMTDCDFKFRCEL
Experimental: as §1
The gene encoding aryl sulfotransferase SULT1A (Example 1) was cloned after a TEF1 promoter into an episomal plasmid with a 2-micron origin of replication as follows. The gene was amplified by PCR using primers CBJP633 and CBJP634. Alternatively, the gene was codon-optimized for E. coli and synthesized by GeneArt and amplified by primers CBJP635 and CBJP636. The TEF1 promoter (Jensen et al., 2014, FEMS Yeast Res 14: 238-248) was amplified by PCR using the primers PTEF1_fw and PTEF1_rv. Plasmid pCfB132 (Jensen et al., supra) was digested by restriction enzymes AsiSI and Nt.Bsml. […]

[4] = system: E. coli MG1655; assay: Toxicity of unsulfated or sulfated product: growth rates of E. coli; details: M9 minimal media, 0.2% glucose, pH 7, 37° C.; pHCA 10-40 mM; zosteric acid 20 mM or 40 mM
Experimental: E. coli MG1655 was grown in chemically defined M9 minimal media with 0.2% glucose as a carbon source without further addition or with the additions of either 10 mM, 20 mM, 25 mM, 30 mM, 35 mM or 40 mM p-coumaric acid (pHCA), or with 20 mM or 40 mM of the sulfate ester of pHCA (zosteric acid). All media preparations had been adjusted to pH 7. Cells were grown at 37° C. with 250 rpm shaking in an orbital shaker. The growth rates were examined by following the optical density at 600 nm.

T1 sequence (P50225 whole entry V223M): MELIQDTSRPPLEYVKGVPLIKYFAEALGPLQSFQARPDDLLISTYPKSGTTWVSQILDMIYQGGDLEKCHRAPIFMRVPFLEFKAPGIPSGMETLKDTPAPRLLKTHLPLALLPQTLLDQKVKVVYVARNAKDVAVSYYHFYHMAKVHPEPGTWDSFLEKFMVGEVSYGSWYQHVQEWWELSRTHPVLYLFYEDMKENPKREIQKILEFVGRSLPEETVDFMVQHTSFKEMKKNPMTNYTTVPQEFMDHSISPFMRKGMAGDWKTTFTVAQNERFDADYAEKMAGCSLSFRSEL

| SMILES | Zosteric acid formed ([1]; CysDNC, induction 0.1 mM IPTG) [mM] | Zosteric acid formed ([1]; CysDNCQ, induction 0.1 mM IPTG) [mM] | Zosteric acid formed ([1]; induction 0.1 mM IPTG) [mM] | Titer of zosteric acid (ZA) [2] [µM] | μM ZA (averages and standard deviations of replicate experiments) ([3]; SULT1A1 rat (codon optimized for E. coli)) [µM] | μM ZA (averages and standard deviations of replicate experiments) ([3]; SULT1A1 rat (native)) [µM] | pHCA remaining ([1]; CysDNC, induction 0.1 mM IPTG) [mM] | pHCA remaining ([1]; CysDNCQ, induction 0.1 mM IPTG) [mM] | pHCA remaining ([1]; CysDNCQ, induction None) [mM] | pHCA remaining ([1]; induction 0.1 mM IPTG) [mM] | Titer of p-coumaric acid (pHCA) [2] [μM] | Toxicity to the cells (growth rates in exponential growth phase, OD 600 nm, FIG. 4) [4] |
| --- | --- | --- | --- | --- | --- | --- | --- | --- | --- | --- | --- | --- |
| O=C(O)/C=C/c1ccc(OS(=O)(=O)O)cc1 [Zosteric acid, zosteric acid] | 0.06 | 0.09 | 0.02 | <1 | 46.2 ± 3.5 | 37.8 ± 5.7 | – | – | – | – | – | – |
| O=C(O)/C=C/c1ccc(O)cc1 [pHCA, p-coumaric acid] | – | – | – | – | – | – | 0.06 | 0.04 | 0.10 | 0.08 | 78 | toxic to the cells |

— US11555212B2, “Process for the production of sulfated phenolic compounds using modified Escerichia coli” (CysBio ApS, priority 2016, dated 2023)
